We go through nine compounds from the NIST ThermoML archive (doi:10.1016/j.fluid.2014.04.002).

A word on the mass density: it is the mass of a sample divided by its volume. Broadly, the viscosity is the internal friction of a fluid under shear.

Numbers after ± are expanded uncertainties.

The first series in a line: xn = mol fraction of the nth substance listed. The following applies: 318.15 K; 101 kPa; Liquid; Vibrating tube method; x2 = 0.
As for `OCCCO` [propan-1,3-diol] + CCOC(=O)C(C)O, the mass density is reported as 1037.11 ± 0.91 kg/m3.
In the case of `C1CCOC1` [tetrahydrofuran] + CCOC(=O)C(C)O, the mass density turned out to be 860.213 ± 0.23 kg/m3.

The series is the same for the next values; noted with them: 323.15 K; 101 kPa; Liquid; Concentric cylinders viscometry; x1 = 1.
As for `CCOC(=O)C(C)O` (stereo not drawn) [DL-ethyl lactate] + COCCOCCOCCOCCOC, the viscosity amounted to 1.349 ± 0.026 mPa·s.

Still in this series, the particulars now being: 323.15 K; 101 kPa; Liquid; Concentric cylinders viscometry; x2 = 0.
Turning to `CC(O)CO` (centres undefined) [1,2-propanediol] + CCOC(=O)C(C)O, the viscosity is on record as 12.64 ± 0.22 mPa·s.
The same measure, in the same setting: the figure for `OCCCO` [propan-1,3-diol] + CCOC(=O)C(C)O is 15.2 ± 0.29 mPa·s.
The same measure, in the same setting: the figure for `C1CCOC1` [tetrahydrofuran] + CCOC(=O)C(C)O is 0.3636 ± 0.0076 mPa·s.

Staying with this series, now noted: 323.15 K; 101 kPa; Liquid; Vibrating tube method; x1 = 1.
Turning to `CCOC(=O)C(C)O` (stereo not drawn) [DL-ethyl lactate] + COCCOCCOCCOCCOC, the mass density came out at 1000.79 ± 0.84 kg/m3.

Staying with this series, now noted: 323.15 K; 101 kPa; Liquid; Vibrating tube method; x2 = 0.
Regarding `CC(O)CO` (centres undefined) [1,2-propanediol] + CCOC(=O)C(C)O, the mass density is 1013.66 ± 0.24 kg/m3.
With `OCCCO` [propan-1,3-diol] + CCOC(=O)C(C)O, the mass density worked out at 1033.91 ± 0.91 kg/m3.
As to `C1CCOC1` [tetrahydrofuran] + CCOC(=O)C(C)O, the mass density is reported as 854.558 ± 0.23 kg/m3.

Assay in the next series: not given
The settings on record: 288.15 K; 101 kPa; Liquid; Concentric cylinders viscometry.
As for `CCOC(=O)C(C)O` (racemic) [DL-ethyl lactate], the viscosity was 3.207 ± 0.062 mPa·s.
On to `CC(O)CO` (centres undefined) [1,2-propanediol], for which the viscosity amounted to 82.54 ± 1.5 mPa·s.
The same measure, in the same setting: then `COCCOCCOCCOCCOC` [2,5,8,11,14-pentaoxapentadecane], with 4.353 ± 0.075 mPa·s.
Regarding `OCCCO` [propan-1,3-diol], the viscosity is listed as 67.3 ± 1.3 mPa·s.
With `C1CCOC1` [tetrahydrofuran], the viscosity came out at 0.5252 ± 0.01 mPa·s.

The same series, now with this note: 288.15 K; 101 kPa; Liquid; Vibrating tube method.
For `CCOC(=O)C(C)O` (racemic) [DL-ethyl lactate], the mass density is on record as 1039.28 ± 0.92 kg/m3.
Still for that read-out and setting: the figure for `CC(O)CO` (centres undefined) [1,2-propanediol] is 1039.87 ± 0.26 kg/m3.
The same measure, in the same setting: then `COCCOCCOCCOCCOC` [2,5,8,11,14-pentaoxapentadecane], with 1016.7 ± 0.24 kg/m3; and `OCCCO` [propan-1,3-diol], with 1055.89 ± 0.95 kg/m3.
Take `C1CCOC1` [tetrahydrofuran]: the mass density came to 893.293 ± 0.23 kg/m3.

The series is the same for the next values; noted with them: 293.15 K; 101 kPa; Liquid; Concentric cylinders viscometry.
On to `CCOC(=O)C(C)O` (racemic) [DL-ethyl lactate], for which the viscosity came out at 2.75 ± 0.053 mPa·s.
With `CC(O)CO` (centres undefined) [1,2-propanediol], the viscosity is recorded as 56.62 ± 0.97 mPa·s.
Turning to `COCCOCCOCCOCCOC` [2,5,8,11,14-pentaoxapentadecane], the viscosity was 3.795 ± 0.065 mPa·s.
For `OCCCO` [propan-1,3-diol], the viscosity is listed as 52.52 ± 1 mPa·s.
Regarding `C1CCOC1` [tetrahydrofuran], the viscosity was found to be 0.5048 ± 0.0098 mPa·s.

Still in this series, the particulars now being: 293.15 K; 101 kPa; Liquid; Vibrating tube method.
Turning to `CCOC(=O)C(C)O` (racemic) [DL-ethyl lactate], the mass density worked out at 1033.84 ± 0.91 kg/m3.
Turning to `CC(O)CO` (centres undefined) [1,2-propanediol], the mass density is on record as 1036.25 ± 0.26 kg/m3.
On to `COCCOCCOCCOCCOC` [2,5,8,11,14-pentaoxapentadecane], for which the mass density is given as 1012.06 ± 0.24 kg/m3.
The same measure, in the same setting: then `OCCCO` [propan-1,3-diol], with 1052.8 ± 0.95 kg/m3.
As for `C1CCOC1` [tetrahydrofuran], the mass density was 887.865 ± 0.23 kg/m3.

Staying with this series, now noted: 298.15 K; 101 kPa; Liquid; Concentric cylinders viscometry.
In the case of `CCOC(=O)C(C)O` (racemic) [DL-ethyl lactate], the viscosity amounted to 2.39 ± 0.046 mPa·s.
Same read-out and setting: then `CC(O)CO` (centres undefined) [1,2-propanediol], with 44.03 ± 0.76 mPa·s; and `COCCOCCOCCOCCOC` [2,5,8,11,14-pentaoxapentadecane], with 3.348 ± 0.058 mPa·s; and `OCCCO` [propan-1,3-diol], with 41.51 ± 0.8 mPa·s.
Still for that read-out and setting: then `C1CCOC1` [tetrahydrofuran], with 0.4847 ± 0.0095 mPa·s.

The series is the same for the next values; noted with them: 298.15 K; 101 kPa; Liquid; Vibrating tube method.
`CCOC(=O)C(C)O` (racemic) [DL-ethyl lactate]: the mass density is 1028.39 ± 0.9 kg/m3.
On the same count and under the same terms, the figure for `CC(O)CO` (centres undefined) [1,2-propanediol] is 1032.59 ± 0.26 kg/m3; for `COCCOCCOCCOCCOC` [2,5,8,11,14-pentaoxapentadecane] it is 1007.42 ± 0.23 kg/m3; for `OCCCO` [propan-1,3-diol] it is 1049.69 ± 0.94 kg/m3.
In the case of `C1CCOC1` [tetrahydrofuran], the mass density amounted to 882.403 ± 0.23 kg/m3.

The same series, now with this note: 303.15 K; 101 kPa; Liquid; Concentric cylinders viscometry.
Consider `CCOC(=O)C(C)O` (racemic) [DL-ethyl lactate], for which the viscosity is recorded as 2.097 ± 0.041 mPa·s.
Same read-out and setting: then `CC(O)CO` (centres undefined) [1,2-propanediol], with 33.16 ± 0.57 mPa·s; and `COCCOCCOCCOCCOC` [2,5,8,11,14-pentaoxapentadecane], with 2.983 ± 0.051 mPa·s; and `OCCCO` [propan-1,3-diol], with 33.2 ± 0.64 mPa·s.
Take `C1CCOC1` [tetrahydrofuran]: the viscosity is 0.464 ± 0.0092 mPa·s.

The series is the same for the next values; noted with them: 303.15 K; 101 kPa; Liquid; Vibrating tube method.
With `CCOC(=O)C(C)O` (racemic) [DL-ethyl lactate], the mass density is reported as 1022.92 ± 0.88 kg/m3.
Consider `CC(O)CO` (centres undefined) [1,2-propanediol], for which the mass density was found to be 1028.88 ± 0.25 kg/m3.
On the same count and under the same terms, the figure for `COCCOCCOCCOCCOC` [2,5,8,11,14-pentaoxapentadecane] is 1002.79 ± 0.23 kg/m3; for `OCCCO` [propan-1,3-diol] it is 1046.57 ± 0.93 kg/m3.
Same read-out and setting: the figure for `C1CCOC1` [tetrahydrofuran] is 876.911 ± 0.23 kg/m3.

Still in this series, the particulars now being: 308.15 K; 101 kPa; Liquid; Concentric cylinders viscometry.
For `CCOC(=O)C(C)O` (racemic) [DL-ethyl lactate], the viscosity was determined as 1.858 ± 0.036 mPa·s.
Take `CC(O)CO` (centres undefined) [1,2-propanediol]: the viscosity was 25.45 ± 0.44 mPa·s.
In the case of `COCCOCCOCCOCCOC` [2,5,8,11,14-pentaoxapentadecane], the viscosity was 2.668 ± 0.046 mPa·s.
The same measure, in the same setting: then `OCCCO` [propan-1,3-diol], with 26.86 ± 0.52 mPa·s.
